Data reported in US20110269825A1, “Modified Thromboxane A2 Receptor Promoter Sequence” (priority 2008, published 2011).

Tests used:
Format in all cases: cell-based, human
WT1 = experiment: Immunoblot analysis of WT1 expression in HEL cells; conditions: PMA 100 nM over 48 h
Procedure: (§1) The expression of WT1, Sp1, Egr1, NF-E2, GATA-1 and Ets-1 proteins in HEL cells was confirmed by western blot analysis. Briefly, whole cell protein was resolved by SDS-PAGE (10% acrylamide gels) and transferred to polyvinylidene difluoride (PVDF) membrane according to standard methodology. Membranes were screened using anti-WT1, anti-NF-E2, anti-Sp1, anti-Egr1, anti-GATA-1 or anti-Ets-1 sera in 5% non fat dried milk in 1×TBS (0.01 M Tris/HCl, 0.1 M NaCl) for 2 h at room temperature followed by washing and screening using goat anti-rabbit horseradish peroxidase (sc-2204) followed by chemiluminescence detection, as described by the supplier (Roche Applied Science). For PMA studies, HEL cells were pre-incubated for the indicated amount of time with 100 nM PMA, with 10 μM PD98059, with 100 nM PMA plus 10 μM PD98059 or, as a control, with vehicle [0.1% (v/v) DMSO]. Whole cell protein (60 μg per lane) was resolved by SDS-PAGE (10% acrylamide gels) and transferred to polyvinylidene difluoride (PVDF) membrane according to standard methodology. […] Cells were harvested 48 hr post-transfection and aliquots ([…]) were analysed by SDS-PAGE/western blot analysis. As a positive control for hTF expression, […] of a commercial control Tissue-Factor Biomass was also analysed. […]

Egr1 = experiment: Immunoblot analysis of Egr1 expression in HEL cells; conditions: PMA 100 nM, 0-48 h
Procedure: The expression of WT1, Sp1, Egr1, NF-E2, GATA-1 and Ets-1 proteins in HEL cells was confirmed by western blot analysis. Briefly, whole cell protein was resolved by SDS-PAGE (10% acrylamide gels) and transferred to polyvinylidene difluoride (PVDF) membrane according to standard methodology. […] For PMA studies, HEL cells were pre-incubated for the indicated amount of time with 100 nM PMA, with 10 μM PD98059, with 100 nM PMA plus 10 μM PD98059 or, as a control, with vehicle [0.1% (v/v) DMSO]. Whole cell protein (60 μg per lane) was resolved by SDS-PAGE (10% acrylamide gels) and transferred to polyvinylidene difluoride (PVDF) membrane according to standard methodology.

Sp1 = experiment: Immunoblot analysis of Sp1 expression in HEL cells; conditions: PMA 100 nM over 48 h
Procedure: as §1

## CCCCCCCCCCCCCC(=O)O[C@@H]1[C@@H](C)[C@@]2(O)[C@@H](C=C(CO)C[C@]3(O)C(=O)C(C)=C[C@@H]23)[C@@H]2C(C)(C)[C@]12OC(C)=O [PMA, phorbol 12-myristate 13-acetate]
WT1
  WT1 protein expression: did not substantially alter the expression of the WT1 doublet
Egr1
  Egr1 protein expression: significant increase in Egr1 expression from 1 to 16 h
Sp1
  Sp1 protein expression: did not result in appreciable changes in the expression of Sp1
